The record followed here is US20250064859A1, “HPSC-DERIVED ARTICULAR CHONDROCYTE COMPOSITIONS, SYSTEMS AND METHODS OF USE THEREOF” (The Children's Medical Center Corporation, priority 2022, published 2025).

Common to all, as to format: cell-based, human
One test relates to paraxial mesoderm. Briefly: Chondrogenic potential of day 14 paraxial mesoderm induced with (420i) or without (420) the Wnt inhibitor in stage 2. The following applies: 420 mesoderm treated with the Wnt inhibitor from day 3-5 of differentiation/stage 2. The protocol:
Five experiments were conducted, and qPCR tests were performed on the cells after 4 weeks and the data was pooled and analyzed. In a second test, 420 and 420i paraxial mesoderm cells were plated in micromass cultures supplemented with TGFβ and qPCR was performed after 12 weeks of micromass expansion. In a third test, 420 and 420i paraxial mesoderm cells were plated in serum-free monolayer culture with no additional factors and qPCR was performed following 4 weeks of culture. A second group of 420 and 420i paraxial mesoderm cells were plated in serum-free monolayer culture supplemented with either FGF alone or with a mixture of FGF, TGFβ and Forskolin (FSK). qPCR was performed after 4 weeks in culture.

In test [1] the test system is monolayer-derived chondrocytes. Briefly: Micromasses seeded with monolayer-derived chondrocytes and treated with TGFβ or BMP; phenotype and qPCR. The following applies: for cartilage phenotype induced in micromass culture: monolayer-derived chondrocytes plated in micromass. The source says:
FIGS. 9A-9C are bar graphs showing relative mRNA copy number for COL10A1 (growth plate cartilage marker) (FIG. 9A), PRG4 (articular cartilage marker) (FIG. 9B) and COL2A1 (general cartilage marker) (FIG. 9C) of monolayer-derived chondrocytes (derived with either FGF-alone or the combination of TGFβ+FGF+FSK treatment) that were subsequently cultured in micromass for 6 weeks in the presence of TGFβ or BMP4 to generate articular or growth plate-like chondrocytes and cartilage tissues. FIGS. 9D-9F are bar graphs showing mRNA copy number for COL10A1 (FIG. 9D), PRG4 (FIG. 9E) and COL2A1 (FIG. 9F) of monolayer-derived chondrocytes (derived with either FGF-alone or the combination of TGFβ+FGF+FSK treatment) that were subsequently cultured in micromass (uM) for 12 weeks in the presence of TGFβ or BMP4 to generate articular or growth plate-like chondrocytes and cartilage tissues.
Micromasses were seeded with monolayer-derived chondrocytes and were treated with TGFβ to induce articular cartilage (i.e., to reproduce “superficial zone-like” chondrocytes that express PRG4) or with BMP to induce growth plate cartilage (GPC; i.e., to produce hypertrophic chondrocytes that express COL10A1). Monolayer-derived chondrocytes were generated with the following compositions: FGF alone or TGF+FGF+FSK30.

The subject of test [2] is micromass cultures (hPSC-derived articular cartilage tissues). Briefly: BMP4 challenge of TGFβ3-treated micromass cultures; COL10A1 mRNA normalized to TBP. The source says: FIGS. 17A-17C depict copy number COL10A1 mRNA normalized to TBP in micromass cultures at indicated timepoints and treatment regimens. FIG. 17A depicts copy number COL10A1 mRNA in micromass cultures treated with TGFB3 from 2-24 weeks, and in TGFB3-treated micromass cultures that were switched to BMP4-supplemented media after 2 weeks (BMP4 @2w), 2 weeks, and 4, 6, 8, 10, 12 weeks in which gene expression was quantified after 2, 6, 12, or 24 weeks after switching media to BMP4-supplementation. FIG. 17B and FIG. 17C depict copy number PRG4 (FIG. 17B) and COL10A1 (FIG. 17C) in micromass cultures after 2, 6, 12, and 24 weeks (w).
FIGS. 17A-C depict copy number COL10A1 mRNA normalized to TBP in micromass cultures at indicated timepoints and treatment regimens. […] Data represents average of 4 biological replicates, error bars indicate standard error.

Regarding `Cc1ccc2nc(NC(=O)CSc3nc4c(c(=O)n3-c3ccccc3)SCC4)sc2c1` [IWP2, N-(6-Methyl-2-benzothiazolyl)-2-[(3,4,6,7-tetrahydro-4-oxo-3-phenylthieno[3,2-d]pyrimidin-2-yl)thio]-acetamide], the “chondrogenic potential of paraxial mesoderm” value in the test with paraxial mesoderm is listed as “increased chondrogenic potential”.

Take “TGFB: transforming growth factor β3, TGFβ agonist used to induce articular cartilage”: the “PRG4 (articular cartilage gene) expression” value in test [1] (micromass) was “higher”. Further, the “cartilage phenotype induced in micromass culture” value in test [1] is “induces articular-like cartilage phenotype”.

“BMP4: Bone Morphogenetic Protein 4, used to induce growth plate cartilage”: in test [1] (micromass, regardless of monolayer treatment prior to micromass culture), the “COL10A1 (hypertrophic chondrocyte/GPC gene) expression” value was “higher”. Further, the “cartilage phenotype induced in micromass culture” value in test [1] is on record as “induces growth plate cartilage phenotype”. In addition, the “COL10A1 mRNA response to BMP4 challenge” value in test [2] (micromass treated with TGFβ for 8 weeks or less prior to BMP4) is “upregulate COL10A1 mRNA”; in test [2] (micromass treated with TGFβ for at least 10 weeks prior to BMP4), “do not upregulate COL10A1 mRNA”.
